Values after ≈ are worked out from the molar mass of the structure shown.
How the values were obtained:
[1] = system: Mycobacterium tuberculosis; test: Antimycobacterial activity against Mycobacterium tuberculosis 331/88 after 21 days; type: functional; details: 504 h
Mycobacterium kansasii [2] = test: Antimycobacterial activity against Mycobacterium kansasii 235/80 after 7 days; type: functional; details: 168 h
Mycobacterium kansasii [3] = test: Antimycobacterial activity against Mycobacterium kansasii 6509/96 after 14 days; type: functional; details: 336 h
Mycobacterium avium [4] = test: Antimycobacterial activity against Mycobacterium avium 330/88 after 14 days; type: functional; details: 336 h
Mycobacterium kansasii [5] = test: Antimycobacterial activity against Mycobacterium kansasii 235/80 after 14 days; type: functional; details: 336 h
Mycobacterium kansasii [6] = test: Antimycobacterial activity against Mycobacterium kansasii 6509/96 after 21 days; type: functional; details: 504 h
Mycobacterium kansasii [7] = test: Antimycobacterial activity against Mycobacterium kansasii 235/80 after 21 days; type: functional; details: 504 h
[8] = system: Mycobacterium tuberculosis; test: Antimycobacterial activity against Mycobacterium tuberculosis 331/88 after 14 days; type: functional; details: 336 h
Mycobacterium avium [9] = test: Antimycobacterial activity against Mycobacterium avium 330/88 after 21 days; type: functional; details: 504 h
[10] = system: Mycobacterium tuberculosis; test: Antimycobacterial activity against Mycobacterium tuberculosis H37Rv; type: functional, organism-based
Mycobacterium kansasii [11] = test: Antimycobacterial activity against Mycobacterium kansasii 6509/96 after 7 days; type: functional; details: 168 h
[12] = system: Mycobacterium tuberculosis; test: Antimycobacterial activity against Mycobacterium tuberculosis H37Rv at 6.25 ug/mL; type: functional
[13] = Lipophilicity, log K of the compound; type: physicochemical; details: octanol/water
[14] = Stability after 21 days; type: physicochemical; details: read-out: Stability
[15] = Stability after 7 days; type: physicochemical; details: read-out: Stability
[16] = Stability after 14 days; type: physicochemical; details: read-out: Stability
[17] = Stability within 7 days; type: physicochemical; details: 168 h

Row | SMILES | MIC [1] | MIC (Mycobacterium kansasii [2]) | MIC (Mycobacterium kansasii [3]) | MIC (Mycobacterium avium [4]) | MIC (Mycobacterium kansasii [5]) | MIC (Mycobacterium kansasii [6]) | MIC (Mycobacterium kansasii [7]) | MIC [8] | MIC (Mycobacterium avium [9]) | MIC [10] | MIC (Mycobacterium kansasii [11]) | inhibition at 6.25 µg/mL [12] | log K [13] | IC50 [10] | remaining at 504 h [14] | remaining at 168 h [15] | remaining at 336 h [16] | Activity [17]
1 | CCC(CO)N1CCN(C(CC)CO)C1OS(=O)(=O)c1ccc(C)cc1 (centres undefined) | 500 µM (≈ 193 µg/mL) | 500 µM (≈ 193 µg/mL) | 500 µM (≈ 193 µg/mL) | 500 µM (≈ 193 µg/mL) | 1000 µM (≈ 387 µg/mL) | 1000 µM (≈ 387 µg/mL) | 1000 µM (≈ 387 µg/mL) | 250 µM (≈ 96.6 µg/mL) | 1000 µM (≈ 387 µg/mL) | > 6.25 µg/mL | 250 µM (≈ 96.6 µg/mL) | 0% | 0.243 | – | – | – | – | –
2 | CN(C)/C=N/C(=O)c1cnccn1 | – | – | – | – | – | – | – | – | – | > 6.25 µg/mL | – | 1% | 0.1718 | – | – | – | – | –
3 | O=C(N/N=C/N1CCOCC1)c1ccncc1 | – | – | – | – | – | – | – | – | – | > 6.25 µg/mL | – | 74% | 0.2653 | – | – | – | – | –
4 | O=C(N/N=C/NCc1ccccn1)c1ccncc1 | 32 µM (≈ 8.17 µg/mL) | 1000 µM (≈ 255 µg/mL) | 125 µM (≈ 31.9 µg/mL) | 1000 µM (≈ 255 µg/mL) | 1000 µM (≈ 255 µg/mL) | 125 µM (≈ 31.9 µg/mL) | 1000 µM (≈ 255 µg/mL) | 16 µM (≈ 4.08 µg/mL) | > 1000 µM | 6.25 µg/mL (≈ 24.5 µM) | 62.5 µM (≈ 16 µg/mL) | 92% | 0.3343 | > 10 µg/mL | – | – | – | –
5 | O=C(N/N=C/NCc1ccccc1)c1ccncc1 | 65.5 µM (≈ 16.7 µg/mL) | 500 µM (≈ 127 µg/mL) | 250 µM (≈ 63.6 µg/mL) | 1000 µM (≈ 254 µg/mL) | 1000 µM (≈ 254 µg/mL) | 250 µM (≈ 63.6 µg/mL) | 1000 µM (≈ 254 µg/mL) | 32 µM (≈ 8.14 µg/mL) | > 1000 µM | > 6.25 µg/mL | 125 µM (≈ 31.8 µg/mL) | 93% | 0.5426 | > 10 µg/mL | – | – | – | –
6 | O=C(N/N=C\N1CCN(c2cc3c(cc2F)c(=O)c(C(=O)O)cn3C2CC2)CC1)c1ccncc1 | 4 µM (≈ 1.91 µg/mL) | 2 µM (≈ 0.957 µg/mL) | 4 µM (≈ 1.91 µg/mL) | 125 µM (≈ 59.8 µg/mL) | 4 µM (≈ 1.91 µg/mL) | 8 µM (≈ 3.83 µg/mL) | 8 µM (≈ 3.83 µg/mL) | 2 µM (≈ 0.957 µg/mL) | 250 µM (≈ 120 µg/mL) | 3.13 µg/mL (≈ 6.54 µM) | 2 µM (≈ 0.957 µg/mL) | 99% | 0.9159 | – | 3% | 30% | 10% | –
7 | O=C(N/N=C/NNC(=O)c1ccncc1)c1ccncc1 | – | – | – | – | – | – | – | – | – | 0.39 µg/mL (≈ 1.37 µM) | – | 96% | 0.3027 | > 62.5 µg/mL | 1% | 19% | 4% | –
8 | O=C(NN/C=N/C(=O)c1cnccn1)c1ccncc1 | 8 µM (≈ 2.16 µg/mL) | 500 µM (≈ 135 µg/mL) | 8 µM (≈ 2.16 µg/mL) | 125 µM (≈ 33.8 µg/mL) | 1000 µM (≈ 270 µg/mL) | 16 µM (≈ 4.32 µg/mL) | 1000 µM (≈ 270 µg/mL) | 4 µM (≈ 1.08 µg/mL) | 125 µM (≈ 33.8 µg/mL) | 0.1 µg/mL (≈ 0.37 µM) | 8 µM (≈ 2.16 µg/mL) | 94% | 0.3562 | > 10 µg/mL | – | – | – | Not Active
9 | CN(C)/C=N/NC(=O)c1ccncc1 | 16 µM (≈ 3.08 µg/mL) | 250 µM (≈ 48.1 µg/mL) | 250 µM (≈ 48.1 µg/mL) | 1000 µM (≈ 192 µg/mL) | 500 µM (≈ 96.1 µg/mL) | 500 µM (≈ 96.1 µg/mL) | 1000 µM (≈ 192 µg/mL) | 16 µM (≈ 3.08 µg/mL) | > 1000 µM | > 6.25 µg/mL | 125 µM (≈ 24 µg/mL) | 1% | 0.252 | – | – | – | – | –
10 | O=C(N/N=C/Nc1ccc(C(=O)O)c(O)c1)c1ccncc1 | 8 µM (≈ 2.4 µg/mL) | 500 µM (≈ 150 µg/mL) | 250 µM (≈ 75.1 µg/mL) | 125 µM (≈ 37.5 µg/mL) | 1000 µM (≈ 300 µg/mL) | 250 µM (≈ 75.1 µg/mL) | 1000 µM (≈ 300 µg/mL) | 4 µM (≈ 1.2 µg/mL) | 125 µM (≈ 37.5 µg/mL) | 0.39 µg/mL (≈ 1.3 µM) | 125 µM (≈ 37.5 µg/mL) | 96% | 0.366 | > 62.5 µg/mL | – | – | – | Not Active
11 | O=C(/N=C/Nc1ccc(C(=O)O)c(O)c1)c1cnccn1 | 16 µM (≈ 4.58 µg/mL) | 16 µM (≈ 4.58 µg/mL) | 16 µM (≈ 4.58 µg/mL) | 32 µM (≈ 9.16 µg/mL) | 32 µM (≈ 9.16 µg/mL) | 32 µM (≈ 9.16 µg/mL) | 32 µM (≈ 9.16 µg/mL) | 8 µM (≈ 2.29 µg/mL) | 62.5 µM (≈ 17.9 µg/mL) | 3.13 µg/mL (≈ 10.9 µM) | 8 µM (≈ 2.29 µg/mL) | 98% | 0.3695 | > 10 µg/mL | 0.1% | 10% | 1% | –
12 | O=C(/N=C/N1CCN(c2cc3c(cc2F)c(=O)c(C(=O)O)cn3C2CC2)CC1)c1cnccn1 | 4 µM (≈ 1.86 µg/mL) | 1 µM (≈ 0.464 µg/mL) | 2 µM (≈ 0.929 µg/mL) | 62.5 µM (≈ 29 µg/mL) | 2 µM (≈ 0.929 µg/mL) | 4 µM (≈ 1.86 µg/mL) | 4 µM (≈ 1.86 µg/mL) | 2 µM (≈ 0.929 µg/mL) | 125 µM (≈ 58.1 µg/mL) | 0.78 µg/mL (≈ 1.68 µM) | 2 µM (≈ 0.929 µg/mL) | 100% | 0.97 | > 10 µg/mL | – | – | – | Not Active
13 | O=C(O)c1cn(C2CC2)c2cc(N3CCNCC3)c(F)cc2c1=O [CIPROFLOXACIN] | – | – | – | – | – | – | – | 16 µM (≈ 5.3 µg/mL) | – | 2 µg/mL (≈ 6.04 µM) | – | 98% | – | > 10 µg/mL | – | – | – | –
14 | NNC(=O)c1ccncc1 [ISONIAZID] | 1 µM (≈ 0.137 µg/mL) | > 250 µM | 4 µM (≈ 0.549 µg/mL) | > 250 µM | > 250 µM | 4 µM (≈ 0.549 µg/mL) | > 250 µM | 1 µM (≈ 0.137 µg/mL) | > 250 µM | 0.025 µg/mL (≈ 0.182 µM) | 2 µM (≈ 0.274 µg/mL) | – | – | > 100 µg/mL | – | – | – | –
15 | NC(=O)c1cnccn1 [PYRAZINAMIDE] | 8 µM (≈ 0.985 µg/mL) | > 128 µM | – | > 128 µM | > 128 µM | – | > 128 µM | 8 µM (≈ 0.985 µg/mL) | > 128 µM | 6 µg/mL (≈ 48.7 µM) | – | – | – | – | – | – | – | –

Source: ChEMBL document CHEMBL1142926, “A new modification of anti-tubercular active molecules” (Bioorg Med Chem, 2007)
